From patent US9504256B2, “Fabrication of magnetic nanoparticles” (University of South Carolina, priority 2013, dated 2016)

Tested on: Staphylococcus aureus ATCC 25423
Assay: Disk diffusion assay
Type: cell-based
Conditions: ATCC25423, 12 μg PenG, read-out: inhibition zone diameter
Method: The PMAA grafted magnetic nanoparticles were used to non-covalently attach the beta-lactam antibiotic penicillin-G (PenG) and subsequently tested for activity against bacteria. Escherichia coli (Gram-negative) and Staphylococcus aureus (Gram-positive) were selected as the target bacteria. The disk diffusion assay of PenG-nanoparticle complex was conducted with a control group of free PenG of the same dose (12 μg PenG). […] Thus, PMAA grafted magnetic nanoparticles enhanced the bioactivity of penG against bacteria when the nanoparticles were physically bound with PenG. Without wishing to be bound by any particular theory, it is believed that the enhanced inhibition activity was due to the locally high concentrations of antibiotics physically attached to PMAA grafted magnetic nanoparticles, which overwhelms the resistance of bacterial strains. The magnetic properties also offer a valuable stimulus technique to direct the nanoparticles in complicated bacterial environments, such as biofilms, while free antibiotic are not able to access cells in the sticky extracellular polymeric substances (EPS) of biofilms.
Escherichia coli ATCC 25922 and Staphylococcus aureus ATCC 25423 were allowed to grow in 10 mL of tryptic soy broth (TSB) at 37° C. overnight to an optical density of 0.8 (OD600=0.8) and then diluted 10-fold. 0.1 mL of the diluted culture was used to inoculate an agar plate. […]

Compound: CC1(C)S[C@@H]2[C@H](NC(=O)Cc3ccccc3)C(=O)N2[C@H]1C(=O)O [free PenG, penicillin-G]
- zone of inhibition at 12 µg/disc: 18 mm
